Source: BindingDB's records for doi:10.1016/s0960-894x(98)00187-5 (Novartis Pharma, 1999)

Biological target: Somatostatin receptor type 2 (Rattus norvegicus) (UniProt P30680)
Assay: Binding affinity for SSTR2 receptors of rat cortex membranes was determined by using [125I][Tyr3]-octreotide radioligand

Sequence of Somatostatin receptor type 2 (Rattus norvegicus) (P30680 whole entry, looked up): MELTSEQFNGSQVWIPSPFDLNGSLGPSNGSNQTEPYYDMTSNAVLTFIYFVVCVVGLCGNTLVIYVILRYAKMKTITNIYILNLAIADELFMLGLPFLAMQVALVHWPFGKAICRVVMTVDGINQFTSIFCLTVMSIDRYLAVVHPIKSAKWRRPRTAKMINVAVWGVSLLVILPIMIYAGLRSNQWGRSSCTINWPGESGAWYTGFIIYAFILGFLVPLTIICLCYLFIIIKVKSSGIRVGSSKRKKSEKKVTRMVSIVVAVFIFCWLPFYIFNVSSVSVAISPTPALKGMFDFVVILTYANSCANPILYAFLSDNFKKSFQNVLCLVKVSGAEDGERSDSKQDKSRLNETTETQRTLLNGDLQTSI

For C[C@@H](O)[C@@H]1NC(=O)[C@H](CCCCN)NC(=O)[C@@H](Cc2c[nH]c3ccccc23)NC(=O)[C@H](Cc2ccccc2)NC(=O)[C@@H](NC(=O)[C@@H](Cc2ccccc2)NC(=O)CN2CCN(CC(=O)O)CCN(CC(=O)O)CCN(CC(=O)O)CC2)CSSC[C@@H](C(=O)N[C@H](CO)[C@@H](C)O)NC1=O, the Ki was 3.2 nM.
